Measured values reported in patent US10195220B2, “Hydrogen sulphide compounds” (Aston University, priority 2013, dated 2019).

Legend:
HTR-8/SVneo cells = experiment: Trophoblast cell invasion assay (Matrigel-coated transwell); type: cell-based, human; conditions: PAG 50 μM, 24 h, p<0.01, n=3
Experimental: The human extravillus trophoblast (EVT) cell line HTR-8/SVneo was a kind gift from Professor Charles H. Graham, Queen's University, Kingston, Ontario, Canada. The invasion assay was performed as described previously, with modification.30 Briefly, HTR-8/SVneo (50,000) cells treated with or without PAG were placed in the upper chamber of Matrigel-coated (1 mg/ml) transwell inserts (8 μm pore, Falcon, BD, UK) and housed in a 24-well plate. The cells were allowed to invade through the reconstituted extracellular matrix for 24 h in the presence or absence of 50 µM PAG (n=3). Trophoblast cells located on the under-surface of the transwell membrane were fixed with ice-cold methanol and stained with hematoxylin, and brightfield images were obtained with Nikon inverted microscope and Image Pro Plus image analysis software (Media Cybernetics). Transwell migration assays of HTR-8/SVneo cells in the presence of 50 µM of PAG were performed as described in Methods. (A) Migrated HTR-8/SVneo were stained with hematoxylin, and brightfield images were captured. (B) Cell numbers were counted, and results are expressed as a percentage of the control (n=3).

pregnant C57Bl6/J mice = experiment: CSE inhibition in pregnant mice (PAG, with or without GYY4137); type: in vivo
Experimental: Eight to ten week old C57/black6 mice were mated. The first day of pregnancy (E0.5) was defined by the presence of a vaginal plug the following morning. Pregnant mice were randomly assigned into four groups: (i) saline (vehicle control), (ii) 25 mg/kg DL-propargylglycine (PAG; Sigma, Poole, U.K.), (iii) 50 mg/kg group PAG and (iv) 50 mg/kg
PAG with 0.25 mg/kg of slow-releasing H2S donor, GYY4137(Sigma). Mice were injected intraperitoneally (i.p.) with saline or PAG from E8.5. Blood pressure was measured by tail cuff-plethysmography. Mice were trained for measurement on alternate days from E4.5. Alternatively, mice were anesthetized by Ketamine/Xylazine cocktail. The carotid artery was isolated and cannulated with a 3-Fr high-fidelity microtip catheter connected to a pressure transducer (Millar Instruments, Houston, Tex., USA). Blood pressure was recorded and averaged over a 10-minute period. On E17.5, after blood pressure measurement and blood sample collection the animals were sacrificed and kidney, liver, and placenta were collected. The un-absorbed fetuses and placentas were counted and weighed.
Kidney, liver, and placenta were immersion fixed in 4% paraformaldehyde for 24 hours and processed to paraffin. A series of 5-μm sections were cut and processed for hematoxylin & eosin (H&E) staining.
(§1) Enzyme-linked immunosorbent assay (ELISA) kits for human and murine soluble Flt-1, soluble endoglin and PlGF were obtained from R&D Systems and performed according to the manufacturer's specifications.
Serial 3-5-μm sections of formalin-fixed, paraffin-embedded human and murine placental tissue were prepared for immunohistochemistry as previously described.^29 Biotin-labelled isolectin B4, anti-CSE (5 mg/ml) and isotype control were used. The staining was analyzed using a Nikon inverted microscope and an Image Pro Plus image analysis software (Media Cybernetics).
Citrated blood was obtained from women with uncomplicated pregnancies (n=14) and preeclampsia (n=14) and also from pregnant mice before termination of pregnancy. H2S levels were measured as described previously with modification.^32 Briefly, 75 μl plasma was mixed with 250 μl of 1% (w/v) zinc acetate and 425 μl water, followed by […] 50% trichloroacetic acid to remove protein. Then 133 μl 20 mM N-dimethyl-p-phenylenediamine sulphate in 7.2 mM HCl and 133 μl 30 μM FeCl3 in 1.2 mM HCl were added to the mixture. After 10 min incubation at room temperature, reaction mixtures were pelleted by centrifugation at 10,000 g (2 minutes). The absorbance of the resulting solution was measured at 670 nm with a spectrophotometer in a 96-well plate. The concentration of H2S in the solution was calculated against a calibration curve of sodium hydrogen sulfide.
Three groups (5-8/group) of pregnant C57Bl6/J mice were treated daily with vehicle or 25 mg/kg PAG or 50 mg/kg PAG from E8.5 to E16.5. After 8 days of treatment, plasma was pooled from all animals in each treatment group, and pooled H2S levels were measured. […] The labyrinth zone consists of cells of trophoblast and mesodermal origin that together undergo branching morphogenesis, resulting in a large surface area for nutrient and gas exchange between the mother and fetus. The maternal blood space is lined by trophoblast. During placental development, this space becomes progressively more finely divided.^37, 38 Using isolectin B4 to highlight the fetal endothelial cell,^39 we compared the anatomical features of the labyrinth zone in vehicle and 50 mg/kg PAG-treated mice.

rat = conditions: chronic administration; cited from earlier work
[1] = system: first trimester human placental explants; experiment: Angiogenic factor release from first trimester placental villus explants (ELISA of conditioned medium); type: cell-based; conditions: increasing concentration of PAG over 24 hours
Source text: Institutional Ethics Committee approved the blood and tissue collection and written informed consent was obtained. We analysed blood samples from women with singleton pregnancies recruited in the Low- and High-Risk Clinics and Labour and Delivery Unit. All women were followed prospectively from enrolment until delivery. Human placental tissues were collected from pregnancies complicated by preeclampsia and uncomplicated pregnancies delivered by elective Caesarean. Samples of placental tissue were processed for RNA extraction and maternal plasma from the same patients (n=14 PE and n=14 control) were used for analysis. From another set of patients placenta (n=5 PE and n=5 control) was collected for the immunohistochemical study. Preeclampsia was defined as blood pressure >140/90 mm Hg on at least 2 consecutive measurements and maternal proteinuria of at least 300 mg/24 h. First trimester placental tissues (6-9 weeks gestational age) were retrieved from normal pregnancies that had undergone elective termination. Villus explants were prepared as described previously.^29 Briefly, human placental villus explants were incubated with or without PAG for 24 hours, and conditioned media collected and assayed for sFlt-1 or sEng and PlGF.
as §1
Angiogenic factors produced by placenta are important in regulating placental vascular development.^33 Imbalance of pro- and anti-angiogenic factors generated by the placenta^29 may account for the widespread maternal endothelial dysfunction in preeclampsia.^34 To investigate whether reduced levels of CSE has any effect on the production of placental angiogenic factor production, sFlt-1, sEng, and PlGF levels were measured in conditioned medium from first trimester human placental explants in the presence of increasing concentration of CSE inhibitor PAG over 24 hours.

HUVEC = conditions: preeclamptic plasma, 100 mM NaHS
Experimental: The spontaneous formation of capillary-like structures by HUVECs on growth factor-reduced Matrigel (Becton Dickinson, Bedford, Mass.), was used to assess angiogenic potential. HUVECs were treated with plasma samples collected from pregnancies complicated by preeclampsia and uncomplicated pregnancies with or without H2S donor (NaHS) and incubated at 37° C. for 24 hours. Ninety-six well plates were coated with Matrigel (10 mg/ml) according to the manufacturer's instructions. HUVECs (1×10^4 cells/well) were then seeded on Matrigel-coated plates.

[2] = GYY4137 0.25 mg/kg with 50 mg/kg PAG
[3] = GYY4137 in mice treated with 50 mg/kg PAG

C#CCC(N)C(=O)O (racemic) [PAG, DL-propargylglycine]
cell invasion compared with vehicle control (HTR-8/SVneo cells): significant reduction | fetal vasculature of the placenta (isolectin B4) (pregnant C57Bl6/J mice; 50 mg/kg PAG): irregular branching | plasma levels of sEng (pregnant C57Bl6/J mice; 50 mg/kg PAG alone): induced | plasma levels of sFlt-1 (pregnant C57Bl6/J mice; 50 mg/kg PAG alone): induced | maternal blood space in the labyrinth zone, versus vehicle controls (pregnant C57Bl6/J mice; 50 mg/kg PAG, blinded histology of placental sections): appeared larger | circulating H2S levels (pregnant C57Bl6/J mice; 25 or 50 mg/kg PAG i.p. daily E8.5 to E16.5, pooled plasma): dose-dependent decrease | proteinuria (renal pathological changes) (pregnant C57Bl6/J mice; PAG treated animals): not noted | circulating liver enzyme aspartate transaminase (AST), liver damage (pregnant C57Bl6/J mice; PAG-treated animals): increased level | mean blood pressure (pregnant C57Bl6/J mice; high dose PAG (50 mg/kg), vehicle control 64.74±2.04): 74.40±4.61 | reduction of plasma H2S levels (pregnant C57Bl6/J mice; higher dose PAG (50 mg/kg), after 8 days of treatment, pooled plasma): approximately 50% | fetal weight (pregnant C57Bl6/J mice; higher dose of PAG): significantly decreased | blood pressure (rat): elevated | PlGF production [1]: significantly reduced | sEng levels in conditioned medium [1]: remained unchanged | sFlt-1 levels in conditioned medium [1]: remained unchanged

C1COCCN1.COc1ccc(P(=S)(S)N2CCOCC2)cc1 (centres unmarked) [GYY4137, morpholin-4-ium 4 methoxy phenyl(morpholino)phosphinodithiolate]
all the changes of PAG-treated pregnant mice (blood pressure, AST) (pregnant C57Bl6/J mice; [2]): abrogated | fetal growth compromised by the CSE inhibitor (pregnant C57Bl6/J mice; [2]): restored | plasma levels of sEng induced by CSE inhibition (pregnant C57Bl6/J mice; [3]): inhibited | plasma levels of sFlt-1 induced by CSE inhibition (pregnant C57Bl6/J mice; [3]): inhibited | blood pressure compromised by PAG-treatment (pregnant C57Bl6/J mice; GYY4137 with PAG): rescued | liver function compromised by PAG-treatment (pregnant C57Bl6/J mice; GYY4137 with PAG): rescued | placental vascular defect due to inhibition of CSE activity (pregnant C57Bl6/J mice; GYY4137 with PAG 50 mg/kg): restored

[Na+].[SH-] [NaHS, sodium hydrogen sulfide]
ability of HUVECs to form tube-like structure (HUVEC): partially restored
